SMILES strings stand for the structures.

The subject of one test is MLKL. Kind of test: Western blot of MLKL phosphorylation/activation in TNF-treated L929 cells. The format is cell-based. The settings on record: within hours. On the procedure: FIG. 1. RIPA-56 prevents RIPK1-dependent cell death in L929 cells upon caspase inhibition and TNF stimulation. L929 cells were treated with RIPA-56 (20 μM), Nec-1 (20 μM) or vehicle for 2 h, prior to incubation with or without TNF (50 ng/mL), and analyzed for (A) morphology and (B) cell survival using MTT assay, after 20 h incubation with or without TNF; (C) Western blot analyses at different time points of incubation with TNF. Results are shown as mean±SEM; n.s., not significant; ****p<0.0001. Data are representative of three independent experiments.
L929 cells (LGC Standards, Molsheim, France), were cultured in Dulbecco's modified Eagle's medium (DMEM) (ThermoFisher, Massachusetts, USA) supplemented with 10% fetal bovine serum (Eurobio, Courtaboeuf, France), penicillin (100 IU/ml), streptomycin (0.1 mg/ml), and L-glutamine (0.03%) (ThermoFisher). […]
Tissue samples were homogenized in NP-40 lysis buffer using a tissue grind pestle (Kimble, Rockwood, USA) or with a bead ruptor 12 (Omni International, Georgia, USA) to obtain protein lysates. Thirty μg of protein extracts from cells or tissue homogenates were separated by SDS-PAGE, transferred to polyvinylidene difluoride membrane and analyzed by immunoblotting. […]

In test [1] the test system is primary human steatotic hepatocytes. Kind of test: Fat depletion in primary human hepatocytes isolated from steatotic livers of patients with NAFLD. The format is cell-based. Conditions: 20 μM, 24 h. On the procedure: FIG. 7. RIPA-56 treatment induces fat depletion in primary human hepatocytes. Primary human hepatocytes were isolated from steatotic human livers of patients with NAFLD (n=5) (A-C) or from non-steatotic human livers and incubated with free fatty acids to induce steatosis or without (W/O) (n=5) (D-G), and treated with RIPA-56 (20 μM) or DMSO (vehicle) for 24 h. (A, D) Representative Oil Red-O and DAPI images; (B, E) Quantification of Oil Red-O staining normalized for the number of DAPI-stained nuclei; (C, F) Quantification of intracellular triglycerides normalized to protein content; (G) mRNA levels of CPT1A, MTTP and APOB100 were assessed by RT-qPCR, and shown relative to DMSO-treated hepatocytes. Results are shown as mean±SEM; n.s., not significant; *p<0.05; **p<0.01; scale bars, 100 μm. […]
The liver fragment was initially perfused with a prewarmed (37° C.) calcium-free buffer supplemented with 5 mmol/L ethylene glycol tetra-acetic acid (Sigma) followed by perfusion with a prewarmed (37° C.) buffer containing 6 mmol/L calcium (CaCl2) and collagenase 0.05% ([…]) (Sigma). […] The count of viable cells was determined using trypan blue exclusion. […]
Intracellular lipids were stained by means of Oil Red-O (Sigma). […] Fluorescence images were viewed with IX83 Olympus microscope, acquired with Cell-Sens V1.6 and analyzed with FIJI software. […]

As for `CCC(C)(C)C(=O)N(O)Cc1ccccc1` [RIPA-56, N-Benzyl-N-hydroxy-2,2-dimethylbutanamide], the “phosphorylation and activation of MLKL” value with MLKL is reported as “inhibited”. In test [1], the “intracellular lipid droplets (Oil Red-O)” value is “marked decrease” and the intracellular triglyceride content result is “marked decrease”.

(Values after patent US12653796B2, “Compounds for use (in particular RIPA-56) in the prevention and/or treatment of non-alcoholic fatty liver disease” (SORBONNE UNIVERSITE, priority 2019, dated 2026).)
